Assays:
Type in all cases: in vivo
Erysiphe graminis = assay: Powdery Mildew of Wheat (ERYSGT), protectant spray test on wheat seedlings; conditions: wheat (cultivar Monon), sprayed to run off at 100 ppm, inoculated after 24 hours
Puccinia recondita = assay: Brown Rust (PUCCRT), protectant spray test on wheat seedlings; conditions: wheat (cultivar Monon), sprayed to run off at 100 ppm, inoculated after 24 hours
Leptosphaeria nodorum = assay: Glume Blotch of Wheat (LEPTNO), protectant spray test on wheat seedlings; conditions: wheat (cultivar Monon), sprayed to run off at 100 ppm, inoculated after 24 hours
Phytophthora infestans = conditions: tomatoes (cultivar Rutgers), sprayed to run off at 100 ppm, inoculated after 24 hours

Structure (SMILES)	ERYSGT control of plant disease (Erysiphe graminis)	PUCCRT control of plant disease (Puccinia recondita)	LEPTNO control of plant disease (Leptosphaeria nodorum)	PHYTIN control of plant disease (Phytophthora infestans)
CNC(=O)C(=NOC)c1ccccc1COc1ncc(C(O)c2cccc(F)c2)cc1Cl (stereo not shown) [Example 93]	++ (++ = 75-100% control of plant disease)	++ (++ = 75-100% control of plant disease)	++ (++ = 75-100% control of plant disease)	++ (++ = 75-100% control of plant disease)
CCC(OC(C)=O)c1cnc(OCc2ccccc2C(=NOC)C(=O)NC)c(Cl)c1 (stereo not shown) [Example 91]	++ (++ = 75-100% control of plant disease)	++ (++ = 75-100% control of plant disease)	++ (++ = 75-100% control of plant disease)	++ (++ = 75-100% control of plant disease)
CNC(=O)C(=NOC)c1ccccc1COc1ncc(C(O)c2cccc(C)c2)cc1Cl (stereo not shown) [Example 84]	++ (++ = 75-100% control of plant disease)	++ (++ = 75-100% control of plant disease)	− (− = 0-24% control of plant disease)	++ (++ = 75-100% control of plant disease)
CNC(=O)C(=NOC)c1ccccc1COc1ncc(C(OC(C)=O)c2ccc(C)cc2)cc1Cl (stereo not shown) [Example 71]	++ (++ = 75-100% control of plant disease)	++ (++ = 75-100% control of plant disease)	++ (++ = 75-100% control of plant disease)	++ (++ = 75-100% control of plant disease)
CNC(=O)C(=NOC)c1ccccc1COc1ncc(C(OC(C)=O)c2cccs2)cc1Cl (stereo not shown) [Example 77]	++ (++ = 75-100% control of plant disease)	++ (++ = 75-100% control of plant disease)	++ (++ = 75-100% control of plant disease)	++ (++ = 75-100% control of plant disease)
CNC(=O)C(=NOC)c1ccccc1COc1ncc(C(OC(C)=O)c2ccc(OC)cc2)cc1Cl (stereo not shown) [Example 95]	++ (++ = 75-100% control of plant disease)	++ (++ = 75-100% control of plant disease)	++ (++ = 75-100% control of plant disease)	++ (++ = 75-100% control of plant disease)
CCC(=O)OC(c1ccc(F)cc1)c1cnc(OCc2ccccc2C(=NOC)C(=O)NC)c(Cl)c1 (racemic) [Example 48]	++ (++ = 75-100% control of plant disease)	++ (++ = 75-100% control of plant disease)	++ (++ = 75-100% control of plant disease)	++ (++ = 75-100% control of plant disease)
CCOCC(=O)OC(c1ccccc1)c1cnc(OCc2ccccc2C(=NOC)C(=O)NC)c(Cl)c1 (racemic) [Example 63]	++ (++ = 75-100% control of plant disease)	++ (++ = 75-100% control of plant disease)	++ (++ = 75-100% control of plant disease)	++ (++ = 75-100% control of plant disease)
CNC(=O)C(=NOC)c1ccccc1COc1ncc(C(O)c2ccc(OC)c(OC)c2)cc1Cl (stereo not shown) [Example 110]	++ (++ = 75-100% control of plant disease)	++ (++ = 75-100% control of plant disease)	++ (++ = 75-100% control of plant disease)	++ (++ = 75-100% control of plant disease)
CNC(=O)C(=NOC)c1ccccc1COc1ncc(C(C)(O)c2ccccc2)cc1Cl (racemic) [Example 26]	++ (++ = 75-100% control of plant disease)	++ (++ = 75-100% control of plant disease)	++ (++ = 75-100% control of plant disease)	++ (++ = 75-100% control of plant disease)
CCOCCOC(c1ccccc1)c1cnc(OCc2ccccc2C(=NOC)C(=O)NC)c(Cl)c1 (stereo not shown) [Example 118]	++ (++ = 75-100% control of plant disease)	++ (++ = 75-100% control of plant disease)	++ (++ = 75-100% control of plant disease)	− (− = 0-24% control of plant disease)
CNC(=O)C(=NOC)c1ccccc1COc1ncc(C(O)c2ccccc2)cc1Cl (stereo not shown) [Example 72]	++ (++ = 75-100% control of plant disease)	++ (++ = 75-100% control of plant disease)	++ (++ = 75-100% control of plant disease)	++ (++ = 75-100% control of plant disease)
CNC(=O)C(=NOC)c1ccccc1COc1ncc(C2(c3ccccc3)COC(C)(C)O2)cc1Cl (stereo not shown) [Example 123]	++ (++ = 75-100% control of plant disease)	++ (++ = 75-100% control of plant disease)	++ (++ = 75-100% control of plant disease)	++ (++ = 75-100% control of plant disease)
CNC(=O)C(=NOC)c1ccccc1COc1ncc(C(C)OCc2ccc(Cl)cc2)cc1Cl (racemic) [Example 27]	++ (++ = 75-100% control of plant disease)	++ (++ = 75-100% control of plant disease)	++ (++ = 75-100% control of plant disease)	− (− = 0-24% control of plant disease)
CNC(=O)C(=NOC)c1ccccc1COc1cc(OC)c(C(OC)c2cccc(C)c2)cn1 (stereo not shown) [Example 115]	+ (+ = 25-74% control of plant disease)	++ (++ = 75-100% control of plant disease)	++ (++ = 75-100% control of plant disease)	− (− = 0-24% control of plant disease)
CNC(=O)C(=NOC)c1ccccc1COc1ncc(C(O)c2ccc(C)cc2C)cc1Cl (racemic) [Example 6]	++ (++ = 75-100% control of plant disease)	++ (++ = 75-100% control of plant disease)	− (− = 0-24% control of plant disease)	++ (++ = 75-100% control of plant disease)
CNC(=O)C(=NOC)c1ccccc1COc1ncc(C(O)c2ccc(C)cc2)cc1Cl (stereo not shown) [Example 70]	++ (++ = 75-100% control of plant disease)	++ (++ = 75-100% control of plant disease)	++ (++ = 75-100% control of plant disease)	++ (++ = 75-100% control of plant disease)
CNC(=O)C(=NOC)c1ccccc1COc1ncc(C(O)c2ccc(F)cc2)cc1Cl (racemic) [Example 7]	++ (++ = 75-100% control of plant disease)	++ (++ = 75-100% control of plant disease)	++ (++ = 75-100% control of plant disease)	++ (++ = 75-100% control of plant disease)
CNC(=O)C(=NOC)c1ccccc1COc1ncc(C(OC(=O)COC)c2ccccc2)cc1Cl (racemic) [Example 64]	++ (++ = 75-100% control of plant disease)	++ (++ = 75-100% control of plant disease)	+ (+ = 25-74% control of plant disease)	++ (++ = 75-100% control of plant disease)
CCCCCOC(C)c1cnc(OCc2ccccc2C(=NOC)C(=O)NC)c(Cl)c1 (racemic) [Example 41]	++ (++ = 75-100% control of plant disease)	++ (++ = 75-100% control of plant disease)	++ (++ = 75-100% control of plant disease)	− (− = 0-24% control of plant disease)
CNC(=O)C(=NOC)c1ccccc1COc1ncc(C(OC(C)=O)c2ccc(F)cc2)cc1Cl (racemic) [Example 46]	++ (++ = 75-100% control of plant disease)	− (− = 0-24% control of plant disease)	++ (++ = 75-100% control of plant disease)	− (− = 0-24% control of plant disease)
CNC(=O)C(=NOC)c1ccccc1COc1ncc(C(O)c2cccc(C(F)(F)F)c2)cc1Cl (racemic) [Example 12]	++ (++ = 75-100% control of plant disease)	++ (++ = 75-100% control of plant disease)	++ (++ = 75-100% control of plant disease)	++ (++ = 75-100% control of plant disease)
CNC(=O)C(=NOC)c1ccccc1COc1ncc(C(O)c2ccccc2C)cc1Cl (racemic) [Example 59]	++ (++ = 75-100% control of plant disease)	++ (++ = 75-100% control of plant disease)	++ (++ = 75-100% control of plant disease)	++ (++ = 75-100% control of plant disease)
CNC(=O)C(=NOC)c1ccccc1COc1ncc(C(C)OCc2ccccc2)cc1Cl (racemic) [Example 52]	++ (++ = 75-100% control of plant disease)	++ (++ = 75-100% control of plant disease)	++ (++ = 75-100% control of plant disease)	− (− = 0-24% control of plant disease)
CNC(=O)C(=NOC)c1ccccc1COc1ncc(C(O)c2cccs2)cc1Cl (racemic) [Example 51]	++ (++ = 75-100% control of plant disease)	++ (++ = 75-100% control of plant disease)	++ (++ = 75-100% control of plant disease)	++ (++ = 75-100% control of plant disease)

From patent US6436963B1 (priority 1998, dated 2002)
